Like-named read-outs stand apart in the source and are kept apart here.

This is an account of results in patent US9522920B2, “Bromodomain inhibitors and uses thereof” (Constellation Pharmaceuticals, Inc., priority 2010, dated 2016).

The subject of assay [1] is MYC mRNA. Briefly: cMyc RNA quantification assay (QuantiGene) in Raji cells. The format is cell-based. Conditions: 4 h. In outline: (§1)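 MV4:11 or Raji cells were treated with a range of compound concentrations for 4 h. MYC mRNA was measured by QuantiGene 2.0, and biological duplicates were averaged and normalized to DMSO vehicle to give percent MYC mRNA.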
For assay [2], the system named is MYC mRNA. Briefly: cMyc RNA quantification assay (QuantiGene) in MV4:11 cells. The format is cell-based. To be noted: read-out: MYC-MV411. The method, boiled down: as §1
A further assay deals with IL-6 secretion. The assay is described as follows: Cell-based IL-6 quantification assay (ELISA, Mesoscale) in LPS-stimulated THP-1 cells. To be noted: THP-1 cells, 16 h, read-out: IL6. The method, boiled down: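 THP-1 cells stimulated with LPS at 4 μg/mL final and exposed to compounds for 16 h. Supernatant IL-6 measured by Mesoscale ELISA and normalized to CellTiter-Glo cell content. Percent inhibition derived from that ratio.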
(In general: ELISA stands for enzyme-linked immunosorbent assay.)

A further assay concerns the target T1, BRD4(BD1) (Homo sapiens, UniProt O60885).
T1 construct: His; made in house
The assay is described as follows: BRD4 AlphaLisa binding assay (Alphascreen). The method, boiled down: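 BRD4(BD1) (30 nM) incubated 20 min at room temperature with peptide (200 nM) and compound in 40 mM HEPES pH 7.0, 40 mM NaCl, 1 mM DTT, 0.01% BSA, 0.008% Brij-35, 1.2% DMSO.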
On the technique in general: Bead proximity is the source of the signal in Alpha formats.

Setting [3] is: Table 7, Raji (Burkitt's lymphoma) cells.
[4] abbreviates: Table 7, MV4:11 (AML) cells, 4 h.
Where [5] appears, read: Table 7, LPS 4 μg/mL, normalised to CellTiter-Glo.
Where [6] appears, read: Table 6, BRD4(BD1) 30 nM, H4-tetraacetyl peptide 200 nM, read-out: BRD4 Alphascreen IC50.
[7] abbreviates: Homo sapiens, Table 7, Raji (Burkitt's lymphoma) cells.
Where [8] appears, read: Homo sapiens, MV4-11, 4 h, Table 7, MV4:11 (AML) cells.
The mark [9] stands for this setting: Homo sapiens, THP-1, 16 h, Table 7, LPS 4 μg/mL, normalised to CellTiter-Glo.
Where [10] appears, read: Homo sapiens, Table 14, Raji cells.
Setting [11] is: Homo sapiens, MV4-11, 4 h, Table 14, MV4:11 cells.
Setting [12] is: Homo sapiens, THP-1, 16 h, Table 14, LPS.
Where [13] appears, read: Table 14, BRD4 AlphaLisa Binding Assay, read-out: Alpha screen.

Consider `Cc1cccc2c1C(c1ccc(C#N)cc1)=N[C@@H](CC(N)=O)c1onc(C)c1-2` [Compound 130], for which the IC50 in the assay with MYC mRNA [1] (setting [3]), with MYC mRNA [2] (setting [4]), in the assay with IL-6 secretion (setting [5]) and on BRD4(BD1) (setting [6]) was less than 500 nM throughout.
On to `Cc1cccc2c1C(c1ccc(OC(F)(F)F)cc1)=N[C@@H](CC(N)=O)c1onc(C)c1-2` [Compound 136], for which the IC50 with MYC mRNA [1] (setting [3]), with MYC mRNA [2] (setting [4]), in the assay on IL-6 secretion (setting [5]) and on BRD4(BD1) (setting [6]) was less than 500 nM each time.
Take `Cc1noc2c1-c1cccc(Cl)c1C(c1ccc(Cl)cc1)=N[C@H]2CC(N)=O` [Compound 139]: the IC50 in the assay with MYC mRNA [1] (setting [3]), with MYC mRNA [2] (setting [4]), in the assay with IL-6 secretion (setting [5]) and on BRD4(BD1) (setting [6]) was less than 500 nM throughout.
Regarding `COCCNC(=O)C[C@@H]1N=C(c2ccc(Cl)cc2)c2ccccc2-c2c(C)noc21` [Compound 145], the IC50 in the assay with MYC mRNA [1] (setting [3]), in the assay with MYC mRNA [2] (setting [4]), in the assay on IL-6 secretion (setting [5]) and at BRD4(BD1) (setting [6]) was less than 500 nM each time.
`Cc1noc2c1-c1ccnc(F)c1C(c1ccc(Cl)cc1)=N[C@H]2CC(N)=O` [Compound 180, 2-((4S)-6-(4-Chlorophenyl)-7-fluoro-1-methyl-4H-isoxazolo[5,4-c]pyrido[4,3-e]azepin-4-yl)acetamide]: the IC50 is 500 to 1000 nM in the assay with MYC mRNA [1] (setting [7]), 500 to 1000 nM in the assay on MYC mRNA [2] (setting [8]) and less than 500 nM in the assay with IL-6 secretion (setting [9]).
As to `CNc1nccc2c1C(c1ccc(Cl)cc1)=N[C@@H](CC(N)=O)c1onc(C)c1-2` [Compound 181, 2-((4S)-6-(4-chlorophenyl)-1-methyl-7-(methylamino)-4H-isoxazolo[5,4-c]pyrido[4,3-e]azepin-4-yl)acetamide], the IC50 in the assay on MYC mRNA [1] (setting [7]), in the assay with MYC mRNA [2] (setting [8]), in the assay with IL-6 secretion (setting [9]) and on BRD4(BD1) (setting [6]) was less than 500 nM each time.
For the compound `Cc1noc2c1-c1ccc(-c3ccc(N)nc3)cc1C(c1ccc(C(F)(F)F)cc1)=N[C@H]2CC(N)=O` [Compound 206], the IC50 with MYC mRNA [1] (setting [10]), in the assay on MYC mRNA [2] (setting [11]), in the assay on IL-6 secretion (setting [12]) and at BRD4(BD1) (setting [13]) was less than 500 nM each time.
For `Cc1noc2c1-c1sc(C)c(C)c1C(c1ccc(C(F)(F)F)cc1)=NC2CC(N)=O` (stereo not drawn) [Compound 208], the IC50 in the assay with MYC mRNA [1] (setting [10]), in the assay with MYC mRNA [2] (setting [11]), in the assay on IL-6 secretion (setting [12]) and at BRD4(BD1) (setting [13]) was less than 500 nM each time.
Take `Cc1noc2c1-c1sc(C)c(C)c1C(c1ccc(C#N)cc1)=N[C@H]2[C@@H](C)C(N)=O` [Compound 209, (2R)-2-((6S)-4-(4-cyanophenyl)-2,3,9-trimethyl-6H-isoxazolo[5,4-c]thieno[2,3-e]azepin-6-yl)propanamide]: the IC50 in the assay with MYC mRNA [1] (setting [10]) was 500 to 1000 nM; with MYC mRNA [2] (setting [11]) it was less than 500 nM; in the assay on IL-6 secretion (setting [12]), less than 500 nM; at BRD4(BD1) (setting [13]) it was less than 500 nM.
For `Cc1noc2c1-c1ccc(F)cc1C(c1ccc(Cl)cc1)=N[C@H]2CC(N)=O` [Compound 210], the IC50 in the assay on MYC mRNA [1] (setting [10]) is 500 to 1000 nM; with MYC mRNA [2] (setting [11]), less than 500 nM; with IL-6 secretion (setting [12]), less than 500 nM; on BRD4(BD1) (setting [13]) it was less than 500 nM.
With `Cc1noc2c1-c1ccccc1C(c1ccc(C(C)(C)O)cc1)=N[C@H]2CC(N)=O` [Compound 235], the IC50 in the assay on MYC mRNA [2] (setting [11]), with IL-6 secretion (setting [12]) and on BRD4(BD1) (setting [13]) was less than 500 nM each time.
Turning to `Cc1noc2c1-c1sc(C)c(C)c1C(c1ccc(C(C)(C)O)cc1)=NC2CC(N)=O` (stereo not drawn) [Compound 236], the IC50 in the assay with MYC mRNA [2] (setting [11]), with IL-6 secretion (setting [12]) and at BRD4(BD1) (setting [13]) was less than 500 nM throughout.
In the case of `Cc1noc2c1-c1ccc(-c3ccc(C(=O)O)cc3)cc1C(c1ccc(F)cc1)=N[C@H]2C` [Compound 237], the IC50 in the assay with MYC mRNA [2] (setting [11]), in the assay on IL-6 secretion (setting [12]) and on BRD4(BD1) (setting [13]) was less than 500 nM in each case.
As for `Cc1noc2c1-c1ccccc1C(c1ccc(F)cc1)=NC2C(F)(F)F` (stereo not drawn) [Compound 238, 6-(4-fluorophenyl)-1-methyl-4-(trifluoromethyl)-4H-benzo[c]isoxazolo[4,5-e]azepine], the IC50 in the assay with MYC mRNA [2] (setting [11]), in the assay with IL-6 secretion (setting [12]) and on BRD4(BD1) (setting [13]) was more than 1000 nM throughout.
With `Cc1noc2c1-c1ccc(O)cc1C(c1ccc(Cl)cc1)=N[C@H]2CC(N)=O` [Compound 239, 2-((4S)-6-(4-chlorophenyl)-8-hydroxy-1-methyl-4H-benzo[c]isoxazolo[4,5-e]azepin-4-yl)acetamide], the IC50 with MYC mRNA [2] (setting [11]), in the assay with IL-6 secretion (setting [12]) and on BRD4(BD1) (setting [13]) was less than 500 nM throughout.
In the case of `Cc1noc2c1-c1ccc(Cl)nc1C(c1ccc(Cl)cc1)=NC2` [Compound 240, 8-Chloro-6-(4-chlorophenyl)-1-methyl-4H-isoxazolo[5,4-c]pyrido[3,2-e]azepine], the IC50 in the assay with MYC mRNA [2] (setting [11]), in the assay on IL-6 secretion (setting [12]) and at BRD4(BD1) (setting [13]) was more than 1000 nM each time.
On to `CNc1ccc2c(n1)C(c1ccc(Cl)cc1)=NCc1onc(C)c1-2` [Compound 241, 6-(4-Chlorophenyl)-N,1-dimethyl-4H-isoxazolo[5,4-c]pyrido[3,2-e]azepin-8-amine], for which the IC50 with MYC mRNA [2] (setting [11]), in the assay with IL-6 secretion (setting [12]) and on BRD4(BD1) (setting [13]) was less than 500 nM each time.
As for `COc1ccc2c(n1)C(c1ccc(Cl)cc1)=NCc1onc(C)c1-2` [Compound 242, 6-(4-Chlorophenyl)-8-methoxy-1-methyl-4H-isoxazolo[5,4-c]pyrido[3,2-e]azepine], the values for the IC50 in the assay on MYC mRNA [2] (setting [11]), in the assay with IL-6 secretion (setting [12]) and at BRD4(BD1) (setting [13]) were more than 1000 nM, more than 1000 nM and 500 to 1000 nM, respectively.
For the compound `Cc1noc2c1-c1ccc(=O)[nH]c1C(c1ccc(Cl)cc1)=NC2` [Compound 243, 6-(4-Chlorophenyl)-1-methyl-4H-isoxazolo[5,4-c]pyrido[3,2-e]azepin-8(7H)-one], the IC50 in the assay on MYC mRNA [2] (setting [11]) is more than 1000 nM; with IL-6 secretion (setting [12]), more than 1000 nM; at BRD4(BD1) (setting [13]), 500 to 1000 nM.
For the compound `CCNC(=O)NC1N=C(c2ccc(Cl)cc2)c2ccccc2-c2c(C)noc21` (stereo not drawn) [Compound 245, 1-(6-(4-chlorophenyl)-1-methyl-4H-benzo[c]isoxazolo[4,5-e]azepin-4-yl)-3-ethylurea], the IC50 with MYC mRNA [2] (setting [11]), with IL-6 secretion (setting [12]) and at BRD4(BD1) (setting [13]) was less than 500 nM in each case.
For the compound `Cc1noc2c1-c1ccc(=O)n(C)c1C(c1ccc(Cl)cc1)=NC2` [Compound 246, 6-(4-Chlorophenyl)-1,7-dimethyl-4H-isoxazolo[5,4-c]pyrido[3,2-e]azepin-8(7H)-one], the IC50 in the assay on MYC mRNA [2] (setting [11]) was more than 1000 nM; with IL-6 secretion (setting [12]), more than 1000 nM; at BRD4(BD1) (setting [13]), 500 to 1000 nM.
For `Cc1noc2c1-c1ccc(N3CCCC3)nc1C(c1ccc(Cl)cc1)=NC2` [Compound 247, 6-(4-Chlorophenyl)-1-methyl-8-(pyrrolidin-1-yl)-4H-isoxazolo[5,4-c]pyrido[3,2-e]azepine], the IC50 in the assay on MYC mRNA [2] (setting [11]) is 500 to 1000 nM; in the assay on IL-6 secretion (setting [12]), less than 500 nM; at BRD4(BD1) (setting [13]), less than 500 nM.
For `CCOc1ccc2c(c1)C(c1ccc(Cl)cc1)=N[C@@H](CC(N)=O)c1onc(C)c1-2` [Compound 248], the IC50 with MYC mRNA [2] (setting [11]), in the assay on IL-6 secretion (setting [12]) and on BRD4(BD1) (setting [13]) was less than 500 nM in each case.
`Cc1noc2c1-c1ccc(OC(C)C)cc1C(c1ccc(Cl)cc1)=N[C@H]2CC(N)=O` [Compound 249]: the IC50 with MYC mRNA [2] (Table 14, MV4:11 cells, 4 h) was less than 500 nM; in the assay on IL-6 secretion (Table 14, LPS) it was less than 500 nM; at BRD4(BD1) (setting [13]), less than 500 nM.
In the case of `Cc1noc2c1-c1cnc(N3CCCC3)cc1C(c1ccc(Cl)cc1)=NC2` [Compound 255, 6-(4-Chlorophenyl)-1-methyl-8-(pyrrolidin-1-yl)-4H-isoxazolo[5,4-c]pyrido[3,4-e]azepine], the IC50 is 500 to 1000 nM in the assay with MYC mRNA [2] (setting [11]), less than 500 nM with IL-6 secretion (setting [12]) and less than 500 nM at BRD4(BD1) (setting [13]).
With `Cc1noc2c1-c1cnc(Cl)cc1C(c1ccc(Cl)cc1)=NC2` [Compound 256, 8-Chloro-6-(4-chlorophenyl)-1-methyl-4H-isoxazolo[5,4-c]pyrido[3,4-e]azepine], the IC50 in the assay with MYC mRNA [2] (setting [11]), with IL-6 secretion (setting [12]) and on BRD4(BD1) (setting [13]) was more than 1000 nM in each case.
On to `Cc1noc2c1-c1ccc(N)nc1C(c1ccc(Cl)cc1)=NC2` [Compound 257, 6-(4-Chlorophenyl)-1-methyl-4H-isoxazolo[5,4-c]pyrido[3,2-e]azepin-8-amine], for which the IC50 in the assay on MYC mRNA [2] (setting [11]) is more than 1000 nM; with IL-6 secretion (setting [12]) it was 500 to 1000 nM; on BRD4(BD1) (setting [13]), less than 500 nM.
